Data: patent US6465612B1, “Synthetic peptides, conjugation reagents and methods” (The Regents of the University of California, priority 1998, dated 2002)
Starred links: 1 amine or outer side, 2 acyl side, 3 side chain; linkers in the order of their positions; H or OH if unused. Non-standard residues stand in square brackets, D forms with d. Residues, ends and D or L forms follow the SMILES beside them. No end group written: not given here. ξ: configuration not given here. *: point of attachment. X1 = CC(=O)N[C@@H]1[C@@H](O)[C@@H](O)[C@@H](C=NO[C@@H]2O[C@H](CO)[C@H](O)[C@H](O)[C@H]2O)O[C@@H]1*; X2 = CC(=O)N[C@H]1[C@@H](ON=C(C)C[C@H](N[*:1])C(=O)[*:2])O[C@H](CO)[C@H](O)[C@@H]1O; αGalNAc = CC(=O)N[C@@H]1[C@@H](O)[C@@H](O)[C@@H](CO)O[C@@H]1*; Thr(3ξ) = CC(O)[C@H](N)C(=O)O

Key:
E. coli D22 [1] = experiment: Bacterial growth inhibition assays (Example IV); assay type: cell-based
Protocol: General methods: Galactose oxidase (EC 1.1.3.9) (450 units/mg) was purchased from Sigma. All chemical reagents were obtained from commercial suppliers and used without further purification. For flash chromatography, 230-400 mesh silica gel 60 (E. Merck No. 9385) was employed. Analytical thin layer chromatography (tlc) was conducted on Analtech Uniplate silica gel plates with detection by ceric ammonium molybdate and/or by UV light. Reversed-phase high pressure liquid chromatography (RP-HPLC) was performed on a Rainin Dynamax SD-200 system using Microsorb and Dynamax C18 reversed-phase columns (analytical: 4.6 mm ID×25 cm, 1 mL/min; semi-preparative: 10 mm ID×25 cm, 3 mL/min), and ultraviolet detection (230 nm) was performed with a Rainin Dynamax UV-1 detector. The E. coli strain D22 used in bacterial growth inhibition assays was obtained from the E. Coli Genetic Stock Center at Yale University.
Bacterial growth inhibition assays. […] Peptide concentrations were determined by measuring dry weight, and assuming 80% of that weight was peptide and the remainder water and salts. […] Growth was determined by measuring the absorbance at 595 nm on a BioRad 550 microplate reader. Percent inhibition was defined as ((Ao−Ax)/Ao)*100), where Ao was the absorbance of a control well lacking peptide and Ax was the absorbance of a well with peptide.

E. coli D22 [2] = experiment: growth inhibition assay (Example II); assay type: cell-based; conditions: for IC50: E. coli D22 in LB media with streptomycin, 24 h at rt, absorbance at 415 nm, read-out: IC50 in blocking bacterial growth
Protocol: 10. The growth inhibition assay was performed essentially as described by Bulet et al.^3 Sterile 96-well plates were used, with a final volume of 100 μL per well. This volume consisted of 90 μL of mid-logarithmnic phase culture of E. coli D22 in LB media containing streptomycin (50 μg/mL), added to 10 μL of serially diluted peptide (native drosocin (1), unglycosylated drosocin or neoglycopeptide 2) in water. Final peptide concentrations ranged from 10^−8 to 10^−5 M. Plates were incubated for 24 h at rt. Bacterial growth was determined by measuring the absorbance at 415 nm on a BioRad 550 microplate reader. Measurements were taken at t=0 h and t=24 h, and the change in absorbance (optical density) was recorded.

bacterial growth = conditions: cited from earlier work; for enhancement of bacteriostatic potency by the O-linked glycan (GalNAc residue) at Thr11: glycosylated vs unglycosylated peptide

Row | Compound | IC50 (E. coli D22 [2]) | enhancement of bacteriostatic potency by the O-linked glycan (GalNAc residue) at Thr11 (bacterial growth) | also measured
1 | CC[C@H](C)[C@H](NC(=O)[C@@H]1CCCN1C(=O)[C@H](CCCNC(=N)N)NC(=O)[C@@H]1CCCN1C(=O)[C@H](Cc1c[nH]cn1)NC(=O)[C@H](CO)NC(=O)[C@@H](NC(=O)[C@@H]1CCCN1C(=O)[C@H](CCCNC(=N)N)NC(=O)[C@@H]1CCCN1C(=O)[C@H](CO)NC(=O)[C@H](Cc1ccc(O)cc1)NC(=O)[C@@H]1CCCN1C(=O)[C@H](CCCNC(=N)N)NC(=O)[C@@H]1CCCN1C(=O)[C@H](CCCCN)NC(=O)CN)[C@@H](C)O[C@H]1O[C@H](C=NO[C@@H]2O[C@H](CO)[C@H](O)[C@H](O)[C@H]2O)[C@H](O)[C@H](O)[C@H]1NC(C)=O)C(=O)N[C@@H](CCCNC(=N)N)C(=O)N[C@H](C(=O)O)C(C)C [Glycopeptide 5] (H-GKPRPYSPRPT(X1)SHPRPIRV-OH) | – | – | potency in blocking bacterial growth relative to unglycosylated drosocin (E. coli D22 [1]; E. coli D22, 6 h at 25° C.): 3 to 4 fold
2 | CC[C@H](C)[C@H](NC(=O)[C@@H]1CCCN1C(=O)[C@H](CCCNC(=N)N)NC(=O)[C@@H]1CCCN1C(=O)[C@H](Cc1c[nH]cn1)NC(=O)[C@H](CO)NC(=O)[C@@H](NC(=O)[C@@H]1CCCN1C(=O)[C@H](CCCNC(=N)N)NC(=O)[C@@H]1CCCN1C(=O)[C@H](CO)NC(=O)[C@H](Cc1ccc(O)cc1)NC(=O)[C@@H]1CCCN1C(=O)[C@H](CCCNC(=N)N)NC(=O)[C@@H]1CCCN1C(=O)[C@H](CCCCN)NC(=O)CN)C(C)O[C@H]1O[C@H](CO)[C@H](O)[C@H](O)[C@H]1NC(C)=O)C(=O)N[C@@H](CCCNC(=N)N)C(=O)N[C@H](C(=O)O)C(C)C (stereo partly drawn) [native drosocin (1), H2N-Gly-Lys-Pro-Arg-Pro-Tyr-Ser-Pro-Arg-Pro-Thr(α-D-GalNAc)-Ser-His-Pro-Arg-Pro-Ile-Arg-Val-OH] (H-GKPRPYSPRP[Thr(3ξ)](αGalNAc)SHPRPIRV-OH) | 0.1 ± 0.02 µM | approximately five-fold | –
3 | CC[C@H](C)[C@H](NC(=O)[C@@H]1CCCN1C(=O)[C@H](CCCNC(=N)N)NC(=O)[C@@H]1CCCN1C(=O)[C@H](Cc1c[nH]cn1)NC(=O)[C@H](CO)NC(=O)[C@H](CC(C)=NO[C@H]1O[C@H](CO)[C@H](O)[C@H](O)[C@H]1NC(C)=O)NC(=O)[C@@H]1CCCN1C(=O)[C@H](CCCNC(=N)N)NC(=O)[C@@H]1CCCN1C(=O)[C@H](CO)NC(=O)[C@H](Cc1ccc(O)cc1)NC(=O)[C@@H]1CCCN1C(=O)[C@H](CCCNC(=N)N)NC(=O)[C@@H]1CCCN1C(=O)[C@H](CCCCN)NC(=O)CN)C(=O)N[C@@H](CCCNC(=N)N)C(=O)N[C@H](C(=O)O)C(C)C [neoglycopeptide 2] (H-GKPRPYSPRP[X2]SHPRPIRV-OH) | 0.16 ± 0.04 µM | – | potency in blocking bacterial growth relative to unglycosylated drosocin (E. coli D22 [2]; E. coli D22, 24 h at rt): four-fold more potent
4 | GKPRPYSPRPTSHPRPIRV [drosocin] | – | five-fold | enhancement of potency in blocking bacterial growth by a single O-linked disaccharide (Gal-GalNAc) at Thr11 (bacterial growth; depending on the target bacterial strain): 2-8 fold
5 | H-GKPRPYSPRPTSHPRPIRV-OH [unglycosylated drosocin] | 0.63 ± 0.05 µM | – | IC50 (E. coli D22 [1]; E. coli D22 in LB media with streptomycin, 6 h at 25° C., absorbance at 595 nm, read-out: IC50 in blocking bacterial growth): 0.4 ± 0.05 µM
